Experimental findings from patent US6858640B2, “Tricyclic indole compounds having affinity for serotonin receptor” (Shionogi & Co., Ltd., priority 2000, dated 2005) are described below.

Like-named read-outs stand apart in the source and are kept apart here.

For one series, the target named is T1, 5HT6 (Homo sapiens, UniProt P50406).
T1 construct: expressed in transfected cells; host or cells: HEK293
Nature of the series: radioligand binding to serotonin receptor, cell membrane sample, Ki by Cheng-Prusoff. As for the experimental part: (§1) A mixture of radioactive ligands and some cardinal numbers of test compounds was incubated with a sample of cell membrane, which was prepared from brain of rats or HEK293 cells, which expressed the receptor, under the following conditions. Then, the sample was filtered by suction on a Whatman GF/C. Radioactivity on the filter was encountered by the use of a liquid scintillation counter. 50% Inhibitory concentration values (IC50 values) of each selective binding were calculated for test compounds and the Ki value was obtained by applying an equation of Cheng-Prusoff [Biochem. Pharmacol. 22 (1973) 3099-3108] Ki=IC50/(1+[L]/Kd).

For the next series, the target named is T2, 5HT1A (Rattus norvegicus, UniProt P19327).
T2 construct: prepared from brain of rats or HEK293 cells, which expressed the receptor; from tissue; host or cells: rat brain membranes
T2 sequence (P19327 1-422): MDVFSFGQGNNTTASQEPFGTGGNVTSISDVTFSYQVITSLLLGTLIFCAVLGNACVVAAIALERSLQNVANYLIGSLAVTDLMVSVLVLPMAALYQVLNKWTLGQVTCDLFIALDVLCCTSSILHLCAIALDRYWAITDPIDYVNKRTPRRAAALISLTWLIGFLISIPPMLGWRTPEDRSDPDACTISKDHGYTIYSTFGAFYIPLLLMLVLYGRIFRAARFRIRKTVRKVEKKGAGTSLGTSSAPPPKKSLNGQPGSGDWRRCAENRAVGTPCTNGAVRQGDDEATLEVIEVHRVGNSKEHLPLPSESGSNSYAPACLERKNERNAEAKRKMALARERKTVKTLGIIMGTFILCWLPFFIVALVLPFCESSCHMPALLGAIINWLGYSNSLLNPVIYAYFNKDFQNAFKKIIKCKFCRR
The series is described as above. The procedure:
as §1

The target in a further series is 5HT7 (Homo sapiens, UniProt P34969). Briefly: radioligand binding to serotonin receptor, cell membrane sample, Ki by Cheng-Prusoff. As for the experimental part:
as §1

Setting [1] is: rat hippocampus membranes, 1 nM [3H] 8-OH-DPAT, 25° C. 30 min, read-out: Ki value (nM) ±SE 5-HT1A.
[2] abbreviates: Human 5-HT7 (HEK293), 0.5 nM [3H] 5CT, 25° C. 120 min, read-out: Ki value (nM) ±SE 5-HT7.

5HT7, sequence (P34969 whole entry, species assumed): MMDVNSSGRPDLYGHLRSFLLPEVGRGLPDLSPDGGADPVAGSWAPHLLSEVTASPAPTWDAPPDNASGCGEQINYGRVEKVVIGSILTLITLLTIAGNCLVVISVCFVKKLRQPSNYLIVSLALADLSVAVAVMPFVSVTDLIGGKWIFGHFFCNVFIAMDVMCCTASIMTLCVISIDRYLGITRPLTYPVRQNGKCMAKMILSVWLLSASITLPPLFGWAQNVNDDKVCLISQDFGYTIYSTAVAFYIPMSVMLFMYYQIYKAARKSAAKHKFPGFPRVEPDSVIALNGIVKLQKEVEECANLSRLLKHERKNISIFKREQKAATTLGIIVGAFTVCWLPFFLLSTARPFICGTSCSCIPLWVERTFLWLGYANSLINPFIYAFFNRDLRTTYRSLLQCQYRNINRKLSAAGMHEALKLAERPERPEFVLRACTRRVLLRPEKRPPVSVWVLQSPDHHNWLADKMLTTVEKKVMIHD
T1 sequence (P50406 whole entry, species assumed): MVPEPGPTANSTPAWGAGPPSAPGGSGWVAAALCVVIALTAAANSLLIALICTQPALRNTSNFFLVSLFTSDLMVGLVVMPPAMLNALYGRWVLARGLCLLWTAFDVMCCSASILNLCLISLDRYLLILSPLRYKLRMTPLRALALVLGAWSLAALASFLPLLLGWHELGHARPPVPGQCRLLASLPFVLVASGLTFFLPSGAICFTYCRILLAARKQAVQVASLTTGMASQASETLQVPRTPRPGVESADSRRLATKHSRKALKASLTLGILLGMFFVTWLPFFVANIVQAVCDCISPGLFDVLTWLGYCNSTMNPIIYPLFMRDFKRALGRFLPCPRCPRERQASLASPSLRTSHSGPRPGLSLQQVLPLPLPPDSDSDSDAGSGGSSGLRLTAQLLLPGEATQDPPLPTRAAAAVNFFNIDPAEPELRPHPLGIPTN

Regarding `CN(C)C1COc2cccc3c2c(cn3S(=O)(=O)c2cccs2)C1` (stereo not shown) [Compound 20-9], the Ki on 5HT6 is 78 nM; on 5HT1A, 86 nM.
Turning to `CCN(CC)C1COc2cccc3c2c(cn3S(=O)(=O)c2ccccc2)C1` (stereo not shown) [Compound 36-3], the melting point is 106 to 108 °C. The compound also displayed a Ki on 5HT6 of 4.2 nM. Moreover, on 5HT1A (setting [1]), the Ki stood at 58 nM.
For the compound `C=Cc1ccc2[nH]cc3c2c1OCC(N(C)C)C3` (stereo not shown) [Compound 40, Dimethyl-(5-vinyl-2,7,8,9-tetrahydro-6-oxa-2-azabenzo[cd]azulen-8-yl)amine], the figures for the Ki on 5HT6, on 5HT1A (setting [1]) and at 5HT7 (setting [2]) were 32 nM, 15 nM and 74 nM, respectively.
For `CNC1COc2c(Br)ccc3[nH]cc(c23)C1` (stereo not shown) [Compound 19-15], the figures for the Ki at 5HT6, on 5HT1A and at 5HT7 were 4.6 nM, 7.7 nM and 16 nM, respectively.
In the case of `O=S(=O)(c1ccccc1)n1cc2c3c(cccc31)OCC(N1CCCC1)C2` (stereo not shown) [Compound 36-1, 2-Benzenesulfonyl-8-pyrrolidin-1-yl-2,7,8,9-tetrahydro-6-oxa-2-azabenzo[cd]azulene], the Ki at 5HT6 is 65 nM; on 5HT1A (setting [1]) it was 29 nM.
Consider `CNC1COc2cccc3[nH]cc(c23)C1` (stereo not shown) [Compound 19-2], for which the Ki was 97 nM at 5HT6 and 23 nM at 5HT1A.
For `CN(C)C1COc2cccc3c2c(cn3S(=O)(=O)c2ccc(C(F)(F)F)cc2)C1` (stereo not shown) [Compound 20-10], the Ki on 5HT6 amounted to 45 nM; at 5HT1A, 95 nM.
`CCCNC1COc2cccc3[nH]cc(c23)C1` (stereo not shown) [Compound 19-3] registered a melting point of 137 to 139 °C. The compound further had a Ki at 5HT1A of 5.7 nM. Further, the affinity at 5HT7 corresponds to a Ki of 46 nM.
In turn, `CN(C)C1COc2c(-c3ccccc3)ccc3[nH]cc(c23)C1` (stereo not shown) [Compound 38, Dimethyl-(5-phenyl-2,7,8,9-tetrahydro-6-oxa-2-azabenzo[cd]azulen-8-yl)amine] showed a melting point of 168 to 170 °C. Moreover, at 5HT1A (setting [1]), the Ki was 83 nM. Moreover, at 5HT7 (setting [2]), the Ki was found to be 22 nM.
Consider `COC(=O)/C=C/c1ccc2[nH]cc3c2c1OCC(N(C)C)C3` (stereo not shown) [Compound 39, (E)-3-(8-Dimethylamino-2,7,8,9-tetrahydro-6-oxa-2-azabenzo[cd]azulen-5-yl)acrylic acid methyl ester], for which the values for the Ki at 5HT1A (setting [1]) and on 5HT7 (setting [2]) were 27 nM and 73 nM, respectively.
On to `CN(C)C1COc2c(Br)ccc3[nH]cc(c23)C1` (stereo not shown) [Compound 19-16], for which the melting point was 142 to 143 °C. The same compound showed a Ki on 5HT6 of 62 nM. Further, at 5HT1A, the Ki was 58 nM. Besides, the affinity on 5HT7, expressed as Ki, was 86 nM.
The compound `c1cc2c3c(c[nH]c3c1)CC(N1CCCC1)CO2` (stereo not shown) [Compound 19-10] showed a melting point of 137 to 139 °C. Moreover, on 5HT1A, the Ki is 2.5 nM.

One may read the Ki as the dissociation constant of the complex between target and ligand, obtained from inhibition or displacement. For orientation: melting point means the temperature of the solid-liquid transition.
